Results from patent US5324648A, “Substituted isocoumarins as serine protease inhibitors and anti-inflammatory agents” (Georgia Tech Research Corporation, priority 1992, dated 1994).
Read-outs that look alike come from different tables or passages of the source. Each block holds one molecule with its values, some of them ahead of it.

Experiments:
bovine trypsin = molecular target: T1, bovine trypsin (Bos taurus, UniProt P00760); experiment: Inactivation rate of bovine trypsin; format: biochemical; settings: Table I; pH 7.5, 25° C; [I] 1 to 12 μM; read-out: kobs/[I]
T1 sequence (P00760 24-246): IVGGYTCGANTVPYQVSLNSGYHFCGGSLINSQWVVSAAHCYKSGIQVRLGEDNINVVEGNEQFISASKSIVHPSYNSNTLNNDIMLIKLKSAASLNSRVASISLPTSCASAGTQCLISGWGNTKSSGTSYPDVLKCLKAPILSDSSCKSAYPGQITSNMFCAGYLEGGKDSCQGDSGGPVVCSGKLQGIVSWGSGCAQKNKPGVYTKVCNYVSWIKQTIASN
Procedure: (§1) Inactivation rates of serine proteases by substituted isocoumarins were measured by the incubation method. An aliquot of inhibitor (25 or 50 μl) in Me2 SO was added to a buffered enzyme solution (0.01-2.3 μM) to initiate the inactivation. Aliquots (50 μl) were withdrawn at various intervals and the residual enzymatic activity was measured. Me2 SO concentration in the reaction mixture was 8-12% (v/v). 0.1 Hepes, 0.01M CaCl2, pH 7.5 buffer was utilized for trypsin and coagulation enzymes. 0.1M Hepes, 0.5M NaCl, pH 7.5 was utilized for other serine proteases. The inhibitor concentrations are shown in all the tables. Peptide thioesters or peptide nitroanilides with appropriate sequence were used as substrates for various serine proteases. All peptide thioester hydrolysis rates were measured with assay mixtures containing 4,4'-dithiodipyridine (ε324 =19800M^-1 cm^-1; Grasetti & Murray, Arch. Biochem. Biophys. 119, pp 41-49 (1967)). Peptide 4-nitroanilide nitroanilide hydrolysis was measured at 410 nm (ε410 =8800M^-1 cm^-1; Erlanger et al., Arch. Biochem. Biophys. 95, pp 271-278 (1961)). First order inactivation rate constant (kobs) were obtained from plots of ln (vt /vo) vs time, and the correlation coefficients were greater than 0.98.
(§2) ^a Conditions were as 0.1M Hepes, 0.01M CaCl2, pH 7.5 and 8-12%
(§3) Me2 SO and 25° C. Rate constants were measured by incubation
(§4) method unless otherwise noted. An aliquot of inhibitor was added to an
(§5) enzyme solution and aliquots removed with time and assayed for remaining
(§6) enzymatic activity. Firstorder rate constants, kobs were obtained
(§7) from the plots of ln(vt /vo) versus time.
(§8) ^a Inhibition rates were measured in 0.1M Hepes, 0.01M CaCl2, pH
(§9) 7.5 buffer, 8% Me2 SO and at 25° C.

[1] = molecular target: T2, porcine pancreatic kallikrein (Sus scrofa, UniProt P00752); experiment: Inactivation rate of porcine pancreatic kallikrein; format: biochemical; settings: Table I; pH 7.5, 25° C; [I] 0.4 to 300 μM; read-out: kobs/[I]
T2 construct: from tissue; host or cells: porcine pancreas (from the name)
T2 sequence (P00752 8-246): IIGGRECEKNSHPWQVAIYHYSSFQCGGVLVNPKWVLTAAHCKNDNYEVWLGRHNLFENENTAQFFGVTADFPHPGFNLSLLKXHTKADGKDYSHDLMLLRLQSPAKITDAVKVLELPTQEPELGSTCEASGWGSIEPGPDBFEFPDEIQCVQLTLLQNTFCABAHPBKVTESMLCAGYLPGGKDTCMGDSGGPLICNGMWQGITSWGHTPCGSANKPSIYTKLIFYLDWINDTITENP

[2] = Spontaneous hydrolysis in Hepes buffer; format: physicochemical; settings: hepes buffer; 0.1 Hepes, 0.5M NaCl, pH 7.5, 9% Me2SO, 25° C; read-out: t1/2 for spontaneous hydrolysis
Procedure: ^a Conditions were 0.1 Hepes, 0.5M NaCl, pH 7.5 and 9% Me2 SO at
25° C. Spontaneous hydrolysis rates were measured
spectrophotometrically by monitoring the decrease in absorbance due to th
isocoumarin ring system (wavelength 335-380 nm) using the firstorder rate

human factor XIa = molecular target: T3, human factor XIa (Homo sapiens, UniProt P03951); experiment: Inactivation rate of human factor XIa; format: biochemical; settings: pH 7.5, 25° C, read-out: kobs/[I]
T3 construct: human factor XIa
T3 sequence (P03951 388-625 limits assumed): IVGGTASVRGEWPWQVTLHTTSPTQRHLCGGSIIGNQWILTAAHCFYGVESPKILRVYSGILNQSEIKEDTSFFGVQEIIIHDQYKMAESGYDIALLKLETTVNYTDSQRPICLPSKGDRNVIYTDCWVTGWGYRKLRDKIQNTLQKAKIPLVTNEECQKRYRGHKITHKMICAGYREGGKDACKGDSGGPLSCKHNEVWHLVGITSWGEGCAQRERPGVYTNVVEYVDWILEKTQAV
T3 sequence (P03951 19-387 partner limits assumed): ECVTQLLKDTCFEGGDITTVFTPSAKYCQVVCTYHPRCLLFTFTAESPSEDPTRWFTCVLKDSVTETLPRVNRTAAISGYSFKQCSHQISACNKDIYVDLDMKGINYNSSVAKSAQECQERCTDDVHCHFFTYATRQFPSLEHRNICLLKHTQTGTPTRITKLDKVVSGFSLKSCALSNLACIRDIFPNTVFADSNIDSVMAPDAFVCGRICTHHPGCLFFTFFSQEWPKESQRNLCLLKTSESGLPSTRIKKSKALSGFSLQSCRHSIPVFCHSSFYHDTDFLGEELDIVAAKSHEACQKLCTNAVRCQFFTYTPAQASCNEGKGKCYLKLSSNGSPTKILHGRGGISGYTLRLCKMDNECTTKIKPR
Procedure: as §1, §2, §3, §4, §5, §6, §7, §8, §9

bovine thrombin = molecular target: T4, bovine thrombin (Bos taurus, UniProt P00735); experiment: Inactivation rate of bovine thrombin; format: biochemical; settings: pH 7.5, 25° C, read-out: kobs/[I]
T4 construct: bovine thrombin
Procedure: as §1, §2, §3, §4, §5, §6, §7, §8, §9

cathepsin G = molecular target: T5, cathepsin G (Homo sapiens, UniProt P08311); experiment: Inactivation of cathepsin G; format: biochemical
T5 construct: from tissue; host or cells: human leukocytes
T5 sequence (P08311 21-255): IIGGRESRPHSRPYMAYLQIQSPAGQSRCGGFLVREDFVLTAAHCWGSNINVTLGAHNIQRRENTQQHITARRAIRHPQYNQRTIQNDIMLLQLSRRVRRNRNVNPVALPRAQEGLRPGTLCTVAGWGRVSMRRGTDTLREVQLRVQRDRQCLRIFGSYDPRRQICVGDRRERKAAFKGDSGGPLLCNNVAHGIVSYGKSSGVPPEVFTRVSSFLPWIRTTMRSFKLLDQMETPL

[3] = molecular target: T6, human leukocyte elastase (HLE) (Homo sapiens, UniProt P08246); experiment: Inactivation of human leukocyte elastase (HLE); format: biochemical
T6 construct: from tissue; host or cells: human leukocytes (from the name)
T6 sequence (P08246 30-267): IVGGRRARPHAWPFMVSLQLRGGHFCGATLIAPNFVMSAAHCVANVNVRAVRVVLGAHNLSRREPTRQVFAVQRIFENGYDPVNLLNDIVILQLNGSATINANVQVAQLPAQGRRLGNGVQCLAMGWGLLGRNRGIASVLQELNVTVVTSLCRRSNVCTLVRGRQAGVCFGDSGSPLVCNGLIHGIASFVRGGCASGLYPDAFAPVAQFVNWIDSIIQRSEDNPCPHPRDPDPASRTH

human factor XIIa = molecular target: T7, human factor XIIa (Homo sapiens, UniProt P00748); experiment: Inactivation rate of human factor XIIa; format: biochemical; settings: pH 7.5, 25° C, read-out: kobs/[I]
T7 construct: human factor XIIa
T7 sequence (P00748 373-615 limits assumed): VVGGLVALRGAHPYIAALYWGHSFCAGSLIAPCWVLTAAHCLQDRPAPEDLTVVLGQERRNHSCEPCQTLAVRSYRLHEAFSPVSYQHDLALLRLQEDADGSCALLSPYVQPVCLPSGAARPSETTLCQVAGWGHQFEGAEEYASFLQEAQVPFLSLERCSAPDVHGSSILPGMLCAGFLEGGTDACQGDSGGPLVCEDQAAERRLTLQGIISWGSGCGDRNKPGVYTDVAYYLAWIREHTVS
T7 sequence (P00748 20-372 partner limits assumed): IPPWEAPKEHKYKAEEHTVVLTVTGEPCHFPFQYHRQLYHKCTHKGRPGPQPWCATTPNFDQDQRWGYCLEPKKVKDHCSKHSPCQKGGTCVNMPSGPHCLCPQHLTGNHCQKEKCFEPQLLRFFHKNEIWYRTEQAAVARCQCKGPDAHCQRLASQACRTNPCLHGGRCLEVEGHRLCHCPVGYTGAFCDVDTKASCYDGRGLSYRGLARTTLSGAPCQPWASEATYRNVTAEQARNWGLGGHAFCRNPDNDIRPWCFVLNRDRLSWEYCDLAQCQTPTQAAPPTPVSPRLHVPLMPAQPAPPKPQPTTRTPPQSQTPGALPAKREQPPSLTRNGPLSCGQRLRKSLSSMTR
Procedure: as §1, §2, §3, §4, §5, §6, §7, §8, §9

[4] = molecular target: T8, porcine pancreatic elastase (PPE) (Sus scrofa, UniProt P00772); experiment: Inactivation of porcine pancreatic elastase (PPE); format: biochemical
T8 construct: from tissue; host or cells: porcine pancreas (from the name)
T8 sequence (P00772 27-266): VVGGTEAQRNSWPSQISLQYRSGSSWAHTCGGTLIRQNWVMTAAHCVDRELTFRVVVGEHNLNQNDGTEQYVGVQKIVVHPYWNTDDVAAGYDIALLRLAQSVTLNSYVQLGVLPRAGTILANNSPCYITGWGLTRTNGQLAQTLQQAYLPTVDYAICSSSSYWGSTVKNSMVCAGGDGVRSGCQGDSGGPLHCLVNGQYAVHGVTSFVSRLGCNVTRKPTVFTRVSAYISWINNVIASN

human plasma kallikrein = molecular target: T9, human plasma kallikrein (Homo sapiens, UniProt P03952); experiment: Inactivation rate of human plasma kallikrein; format: biochemical; settings: Table I; pH 7.5, 25° C; [I] 3 to 330 μM (footnote g); read-out: kobs/[I]
T9 construct: human plasma kallikrein; from tissue; host or cells: human plasma (from the name)
T9 sequence (P03952 391-638 limits assumed): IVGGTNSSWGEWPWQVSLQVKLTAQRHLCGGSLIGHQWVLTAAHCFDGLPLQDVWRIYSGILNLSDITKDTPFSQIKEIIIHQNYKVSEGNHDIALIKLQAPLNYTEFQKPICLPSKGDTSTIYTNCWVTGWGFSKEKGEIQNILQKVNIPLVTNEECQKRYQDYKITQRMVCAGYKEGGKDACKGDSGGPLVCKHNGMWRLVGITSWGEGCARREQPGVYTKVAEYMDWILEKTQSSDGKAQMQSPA
T9 sequence (P03952 20-390 partner limits assumed): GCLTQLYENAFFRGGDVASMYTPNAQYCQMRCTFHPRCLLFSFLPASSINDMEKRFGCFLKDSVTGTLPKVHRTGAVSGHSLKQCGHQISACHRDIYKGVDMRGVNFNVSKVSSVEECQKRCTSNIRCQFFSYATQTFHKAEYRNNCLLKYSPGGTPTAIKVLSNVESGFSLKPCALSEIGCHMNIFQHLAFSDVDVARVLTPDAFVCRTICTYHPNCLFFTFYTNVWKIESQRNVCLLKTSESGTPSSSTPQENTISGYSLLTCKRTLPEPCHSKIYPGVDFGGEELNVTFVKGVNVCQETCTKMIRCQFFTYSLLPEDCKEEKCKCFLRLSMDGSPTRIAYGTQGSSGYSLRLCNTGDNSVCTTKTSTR
Procedure: as §1, §2, §3, §4, §5, §6, §7

[5] = molecular target: sheep lung lymph tryptase; experiment: Inactivation rate of sheep lung lymph tryptase; format: biochemical; settings: Table III; pH 7.5, 25° C; [I] 10 to 460 μM
Procedure: Inactivation rates of serine proteases by substituted isocoumarins were measured by the incubation method. An aliquot of inhibitor (25 or 50 μl) in Me2 SO was added to a buffered enzyme solution (0.01-2.3 μM) to initiate the inactivation. Aliquots (50 μl) were withdrawn at various intervals and the residual enzymatic activity was measured. […] 0.1 Hepes, 0.01M CaCl2, pH 7.5 buffer was utilized for trypsin and coagulation enzymes. […] The inhibitor concentrations are shown in all the tables. Peptide thioesters or peptide nitroanilides with appropriate sequence were used as substrates for various serine proteases.
(§10) ^a Inactivation rates were measured at 0.1M Hepes, 0.5M NaCl, pH 7.5
(§11) buffer, 8% Me2 SO and 25° C.

bovine factor Xa = molecular target: T10, bovine factor Xa (Bos taurus, UniProt P00743); experiment: Inactivation rate of bovine factor Xa; format: biochemical; settings: Table I; pH 7.5, 25° C; [I] 0.4 to 310 μM; read-out: kobs/[I]
T10 construct: bovine factor Xa
T10 sequence (P00743 234-492 limits assumed): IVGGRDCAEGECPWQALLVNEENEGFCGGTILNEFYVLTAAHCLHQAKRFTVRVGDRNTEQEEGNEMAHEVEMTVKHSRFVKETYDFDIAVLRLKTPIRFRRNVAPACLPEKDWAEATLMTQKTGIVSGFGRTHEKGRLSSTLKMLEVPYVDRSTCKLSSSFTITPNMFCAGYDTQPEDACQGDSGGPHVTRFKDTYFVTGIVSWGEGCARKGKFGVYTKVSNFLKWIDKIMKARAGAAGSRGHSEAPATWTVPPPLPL
T10 sequence (P00743 41-180 partner limits assumed): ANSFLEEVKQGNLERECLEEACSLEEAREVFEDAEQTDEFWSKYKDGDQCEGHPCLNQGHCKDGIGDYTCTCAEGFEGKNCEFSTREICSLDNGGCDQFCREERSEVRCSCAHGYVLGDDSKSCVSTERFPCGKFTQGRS

chymotrypsin = chymotrypsin (Bos taurus, UniProt P00766); experiment: Inactivation of chymotrypsin; format: biochemical, bovine; settings: pH 7.5, 25° C, read-out: kobs/[I]
pig plasma [6] = experiment: Activated partial thromboplastin time (APTT), pig plasma; settings: [I] 32 μM
human factor Xa = molecular target: T11, human factor Xa (Homo sapiens, UniProt P00742); experiment: Inactivation rate of human factor Xa; format: biochemical; settings: Table VIII; pH 7.5, 25° C; [I] 3.6-44 μM; read-out: kobs/[I]
T11 construct: human factor Xa
T11 sequence (P00742 235-488 limits assumed): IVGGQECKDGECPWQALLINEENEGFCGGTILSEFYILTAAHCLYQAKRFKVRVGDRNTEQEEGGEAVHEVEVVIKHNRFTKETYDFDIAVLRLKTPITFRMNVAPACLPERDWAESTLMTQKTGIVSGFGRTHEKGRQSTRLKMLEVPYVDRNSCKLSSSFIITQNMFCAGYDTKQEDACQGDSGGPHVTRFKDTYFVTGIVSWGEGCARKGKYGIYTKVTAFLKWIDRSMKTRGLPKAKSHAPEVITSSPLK
T11 sequence (P00742 41-179 partner limits assumed): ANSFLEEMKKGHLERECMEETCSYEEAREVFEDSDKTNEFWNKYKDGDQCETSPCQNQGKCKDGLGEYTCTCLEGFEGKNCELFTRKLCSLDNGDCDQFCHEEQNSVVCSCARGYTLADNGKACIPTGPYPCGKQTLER
Procedure: as §1, §2, §3, §4, §5, §6, §7, §8, §9

[7] = molecular target: recombinant human tissue plasminogen activator (Homo sapiens, UniProt P00750); experiment: Inactivation rate of recombinant human tissue plasminogen activator; format: biochemical; settings: pH 7.5, Table IX; pH 7.5, 25° C; [I] 3.5-5.0 μM; read-out: kobs/[I]
recombinant human tissue plasminogen activator, sequence (P00750 36-562): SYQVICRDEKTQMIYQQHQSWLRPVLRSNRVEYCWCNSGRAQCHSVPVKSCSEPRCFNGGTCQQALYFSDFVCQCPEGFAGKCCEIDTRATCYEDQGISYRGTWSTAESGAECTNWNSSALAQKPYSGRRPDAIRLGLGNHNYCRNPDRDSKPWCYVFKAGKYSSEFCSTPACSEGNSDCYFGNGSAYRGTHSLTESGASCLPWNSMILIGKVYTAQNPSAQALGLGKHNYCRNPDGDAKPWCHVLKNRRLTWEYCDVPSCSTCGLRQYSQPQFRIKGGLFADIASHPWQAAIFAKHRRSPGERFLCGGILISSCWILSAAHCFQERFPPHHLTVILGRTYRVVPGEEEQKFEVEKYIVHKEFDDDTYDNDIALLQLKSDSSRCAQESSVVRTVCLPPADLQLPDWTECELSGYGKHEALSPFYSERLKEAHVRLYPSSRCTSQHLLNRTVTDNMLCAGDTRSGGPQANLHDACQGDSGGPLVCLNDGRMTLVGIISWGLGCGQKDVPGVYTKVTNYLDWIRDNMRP
Procedure: as §1
^a Inactivation constants were measured at 0.1M Hepes, 0.5M NaCl (or
as §8
(§12) 7.5 buffer for human plasmin; 25 mM Phosphate, 0.5M NaCl, 1 mM EDTA, pH
(§13) 7.5 buffer for rat skin tryptase and 0.1M Hepes, 0.5M NaCl, pH 7.5 for
(§14) human lung tryptase, human skin tryptase and rt-PA. All enzymes were
(§15) assayed with ZArg-SBzl (0.07 mM) in the presence of 4,4dithiodipyridine
(§16) (0.33 mM). Reaction mixtures contained 8% Me2 SO and assays were […]

human lung tryptase = experiment: Inactivation rate of human lung tryptase; format: biochemical; settings: Table IX; pH 7.5, 25° C; [I] 0.42-0.47 μM
Procedure: as §1, §10, §11, §8, §12, §13, §14, §15, §16

rat skin tryptase = molecular target: T12, rat skin tryptase (Rattus norvegicus, UniProt P27435); experiment: Inactivation rate of rat skin tryptase; format: biochemical; settings: pH 7.5, Table IX; pH 7.5, 25° C; [I] 0.42-0.51 μM; read-out: kobs/[I]
T12 construct: from tissue; host or cells: rat skin
T12 sequence (P27435 29-273): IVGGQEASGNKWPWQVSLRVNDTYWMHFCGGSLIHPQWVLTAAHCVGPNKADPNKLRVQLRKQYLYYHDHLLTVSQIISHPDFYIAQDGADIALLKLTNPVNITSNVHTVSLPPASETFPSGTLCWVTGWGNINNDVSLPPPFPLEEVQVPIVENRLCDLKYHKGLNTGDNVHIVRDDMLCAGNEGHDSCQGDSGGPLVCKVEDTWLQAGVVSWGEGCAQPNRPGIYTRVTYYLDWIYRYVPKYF
Procedure: as §1
^b Inactivation rates were measured at 25 mM phosphate, 0.5M NaCl, 1
mM EDTA, pH 7.5 buffer, 9% Me2 SO and 25° C.
as §8, §12, §13, §14, §15, §16

human thrombin = molecular target: T13, human thrombin (Homo sapiens, UniProt P00734); experiment: Inactivation rate of human thrombin; format: biochemical; settings: Table VIII; pH 7.5, 25° C; [I] 1.2-54 μM; read-out: kobs/[I]
T13 construct: human thrombin
Procedure: as §1, §8, §9

pig plasma [8] = experiment: Prothrombin time (PT), pig plasma; settings: [I] 32 μM

- kinact/KI (bovine trypsin): 20000 M⁻¹ s⁻¹
- kinact/KI [1]: 16000 M⁻¹ s⁻¹
- half-life [2]: 2.27 h
- kinact/KI (human factor XIa; Table I, [I] 3 to 330 μM): 3100 M⁻¹ s⁻¹
- kinact/KI (bovine thrombin; Table I, [I] 0.3 to 400 μM): 3700 M⁻¹ s⁻¹
- inhibition at 47 µM (cathepsin G; Table IV, not time dependent, at 47 μM): 87%
- kinact/KI ([3]; Table IV, pH 7.5, 25° C, [I] 0.001 to 0.18 mM, read-out: kobs/[I]): 1900 M⁻¹ s⁻¹
- kinact/KI (human factor XIIa; Table I, [I] 3 to 330 μM): 1300 M⁻¹ s⁻¹
- kinact/KI ([4]; Table IV, pH 7.5, 25° C, [I] 0.01 to 0.51 mM, read-out: kobs/[I]): 86 M⁻¹ s⁻¹
- kinact/KI (human plasma kallikrein): 44000 M⁻¹ s⁻¹
- kobs/[I] [5]: 150 M⁻¹ s⁻¹
- kinact/KI (bovine factor Xa): 2700 M⁻¹ s⁻¹
- kinact/KI (chymotrypsin; Table IV, [I] 0.004 to 0.33 mM): 990 M⁻¹ s⁻¹
SMILES: CCOc1cc2ccc(NC(=N)N)cc2c(=O)o1 [7-guanidino-3-ethoxyisocoumarin]

- kinact/KI (human factor Xa): 2340 M⁻¹ s⁻¹
- kinact/KI [7]: 19000 M⁻¹ s⁻¹
- kinact/KI (human factor XIa; Table VIII, [I] 0.7-0.8 μM): 105000 M⁻¹ s⁻¹
- kinact/KI (bovine thrombin; Table VIII, [I] 1.2-54 μM): 16800 M⁻¹ s⁻¹
- kobs/[I] (human lung tryptase): 280,000 M^-1 s^-1
- kinact/KI (human factor XIIa; Table VIII, [I] 3.6-4.9 μM): 45000 M⁻¹ s⁻¹
- kinact/KI (rat skin tryptase): 200000 M⁻¹ s⁻¹
- kinact/KI (human thrombin): 11700 M⁻¹ s⁻¹
SMILES: N=C(N)SCCOc1oc(=O)c2cc(NC(=O)NCc3ccccc3)ccc2c1Cl [PhCH2 NHCONH-CiTEtOIC, 7-(benzylcarbamoylamino)-4-chloro-3-(2-isothiureidoethoxy)isocoumarin]
- APTT (pig plasma [6]): > 120 s
- PT (pig plasma [8]): 31.1 s

- kinact/KI (bovine thrombin; Table VIII, [I] 1.2-54 μM): 29500 M⁻¹ s⁻¹
- kinact/KI (cathepsin G; Table X, pH 7.5, 25° C, [I] 33-46 μM, read-out: kobs/[I]): 145 M⁻¹ s⁻¹
- percentage of inhibition ([3]; Table X, after 5 min incubation): 40%
- percentage of inhibition ([4]; Table X, after 20 min incubation): 9%
- kinact/KI (human thrombin): 12000 M⁻¹ s⁻¹
- kinact/KI (chymotrypsin; Table X, [I] 0.9-43 μM): 360 M⁻¹ s⁻¹
SMILES: C[C@@H](NC(=O)Nc1ccc2c(Cl)c(OCCSC(=N)N)oc(=O)c2c1)c1ccccc1 [R-C6 H5 (CH3)CHNHCONH-CiTEtOIC, 7-((R)-α-methylbenzylcarbamoylamino)-4-chloro-3-(2-isothiureidoethoxy)isocoumarin]
- APTT (pig plasma [6]): > 120 s
- PT (pig plasma [8]): 26.2 s
